Read-outs that look alike come from different tables or passages of the source.
System: P4 G4
Assay: In vitro translation (IVT) assays
Format: biochemical, SARS-CoV-2

NCCOc1cc(C(=O)Nc2cc(OCCN3CCCC3)c3ccccc3n2)nc(C(=O)Nc2cc(OCCN3CCCC3)c3ccccc3n2)c1 [PDP] was tested, and the “IVT of P4-Mut” value (P4-Mut (G/A mutations)) was “not for P4-Mut”.
With C[n+]1ccc(-c2c3nc(c(-c4cc[n+](C)cc4)c4ccc([nH]4)c(-c4cc[n+](C)cc4)c4nc(c(-c5cc[n+](C)cc5)c5ccc2[nH]5)C=C4)C=C3)cc1 [TMPyP4, 5,10,15,20-tetrakis-(N-methyl-4-pyridyl)porphine] the “IVT of P4-Mut” value was “not for P4-Mut”.

Source: PMC9447362
